Laboratory results taken from patent US20060014740A1 (priority 2003, published 2006).
Where a name gives a salt, the structure may show the parent alone. Read-outs that look alike come from different tables or passages of the source.

Experiments:
[1] = system: RH7777 rat hepatoma cells; assay: SRB cytotoxicity assay, RH7777 control cell line; format: cell-based; conditions: read-out: IC50 RH7777
Description: (§1) For in vitro cytotoxicity screening, 1000 to 5000 cells were plated into each well of 96-well plates depending on growth rate, and exposed to different concentrations of a test compound for 96 h in three to five replicates. All the compounds were dissolved in dimethyl sulfoxide at 5 to 20 mM, and diluted to desired concentrations in complete culture medium. Cell numbers at the end of the drug treatment were measured by the SRB assay (Gududuru et al., “Synthesis and Biological Evaluation of Novel Cytotoxic Phospholipids for Prostate Cancer,” Bioorg. Med. Chem. Lett. 14:4919-4923 (2004); Rubinstein et at., “Comparison of in vitro Anticancer-Drug-Screening Data Generated with a Tetrazolium Assay Versus a Protein Assay Against a Diverse Panel of Human Tumor Cell Lines,” J. Naatl, Cancer Inst. 82:1113-1118 (1990), each of which is hereby incorporated by reference in its entirety). Briefly, the cells were fixed with 10% of trichloroacetic acid, stained with 0.4% SRB, and the absorbances at 540 nm was measured using a plate reader (DYNEX Technologies, Chantilly, Va.).
(§2) The antiproliferative activity of all the synthesized compounds was evaluated against five human prostate cancer cell lines and in RH7777 cells (negative control) using the sulforhodamine B (SRB) assay (see description in Example 5 above).
(§3) The chosen cell lines represent different basal levels of active AKT and LPL receptor expression (discussed later). Cells were exposed to a wide range of concentrations (0 to 100 μM) of the indicated compound for 96 h. Cell numbers at the end of treatment were measured using the sulforhodamine B (SRB) assay^5.
(§4) Cells were exposed to a wide range of concentrations (0 to 100 μM) of the particular compound for 96 h in 96 well plates. Cells were fixed with 10% trichloroacetic acid, washed five times with water. The plates were air dried overnight and fixed cells were stained with SRB solution. The cellular protein-bound SRB was measured at 540 nm using a plate reader. Cell numbers at the end of the treatment were measured.
as §4, with “96-well” for “96 well”, “calculated as a percentage of untreated control.” for “measured.”

[2] = system: DU-145 human prostate cancer cells; assay: SRB cytotoxicity assay, DU-145; format: cell-based; conditions: 96 h
Description: as §1, §2, §3, §4
as §4, with “96-well” for “96 well”, “calculated as a percentage of untreated control.” for “measured.”

[3] = system: PC-3 human prostate cancer cells; assay: SRB cytotoxicity assay, PC-3; format: cell-based; conditions: 96 h, read-out: IC50 PC-3
Description: as §1, §2, §3, §4
as §4, with “96-well” for “96 well”, “calculated as a percentage of untreated control.” for “measured.”

[4] = system: LNCaP human prostate cancer cells; assay: SRB cytotoxicity assay, LNCaP; format: cell-based; conditions: 96 h, read-out: IC50 LNCaP
Description: as §1, §2, §3, §4
as §4, with “96-well” for “96 well”, “calculated as a percentage of untreated control.” for “measured.”

[5] = system: PPC-1 human prostate cancer cells; assay: SRB cytotoxicity assay, PPC-1; format: cell-based; conditions: Homo sapiens, PPC-1, 96 h, read-out: IC50 PPC-1
Description: (§5) Dr. Mitchell Steiner at University of Tennessee Health Science Center, kindly provided PPG-1 and TSU-PrI cells.
as §1, §2, §3, §4
as §4, with “96-well” for “96 well”, “calculated as a percentage of untreated control.” for “measured.”

[6] = system: TSU-Pr1 human prostate cancer cells; assay: SRB cytotoxicity assay, TSU-Pr1; format: cell-based; conditions: 96 h, read-out: IC50 TSU-Pr1
Description: as §5, §1, §2, §3, §4
as §4, with “96-well” for “96 well”, “calculated as a percentage of untreated control.” for “measured.”

[7] = system: human breast cancer cell line (MCF-7); assay: SRB cytotoxicity assay, MCF-7; format: cell-based; conditions: Homo sapiens, MCF7, read-out: IC50 MCF-7
Description: as §1
(§6) In vitro cytotoxicity assay was performed by the same sulforhodamine B (SRB) assay (described above). The compounds shown in Table 8 below where tested for activity against the breast cancer and ovarian cancer cell lines.
as §3, §4

[8] = system: CaOv-3 human ovarian cancer cell line; assay: SRB cytotoxicity assay, CaOv-3; format: cell-based; conditions: Table 8
Description: as §1, §6

[9] = system: OVCAR-3 human ovarian cancer cell line; assay: SRB cytotoxicity assay, OVCAR-3; format: cell-based; conditions: Table 8
Description: as §1, §6

[10] = system: SKOv-3 human ovarian cancer cell line; assay: SRB cytotoxicity assay, SKOv-3; format: cell-based; conditions: Table 8
Description: as §1, §6

[11] = Rattus norvegicus, RH7777, Table 4, control cell line, 96 h
[12] = Homo sapiens, DU-145, read-out: IC50 DU-145, Table 4
[13] = Table 8, breast cancer cell line

Row | Compound | melting point [°C] | IC50 [1, 11] [µM] | IC50 [2, 12] [µM] | IC50 ([3]; Homo sapiens, Table 4) [µM] | IC50 ([4]; Homo sapiens, LNCaP, Table 4) [µM] | IC50 ([5]; Table 4) [µM] | IC50 ([6]; Homo sapiens, TSU-Pr1, Table 4) [µM] | IC50 [7, 13] [µM] | further results
1 | CCCCCCCCCCCCCCCCCCNC(=O)[C@@H]1CSC(c2ccccc2)N1C(C)=O (mixture of isomers) [Compound 28, (2RS, 4R)-3-Acetyl-2-phenylthiazolidine-4-carboxylic acid octadecylamide] | 90 | > 20 | ~20 | ~20 | 16.1 | 12.6 | > 20 | 16.3 | 
2 | CCCCCCCCCCCCCCCCCCNC(=O)[C@@H]1CSC(c2ccc(OC)c(OC)c2)N1 (mixture of isomers) [Compound 16-HCI, (2RS, 4R)-2-(3,4-Dimethoxy-phenyl)-thiazolidine-4-carboxylic add octadecylamide Hydrochloride] |  |  |  |  |  |  |  |  | IC50 ([1]; Table 3, control cell line, 96 h): 10.3 µM; IC50 ([2]; read-out: IC50 DU-145, Table 3): 4.5 µM; IC50 ([3]; Table 3): 5.2 µM; IC50 ([4]; Table 3): 0.85 µM; IC50 ([6]; Table 3): 2.4 µM; IC50 [8]: 5.5 µM; IC50 [9]: 1.2 µM; IC50 [10]: 3.6 µM
3 | CCCCCCCCCCCCCCCCCCNC(=O)[C@H]1CSC(c2ccccc2)N1 (stereo partly drawn) [5-HCI (S), (4S)-N-octadecyl-2-phenylthiazolidine-4-carboxamide] |  |  |  |  |  |  |  | 7.4 | IC50 ([1]; Rattus norvegicus, RH7777, Example 10 table, 0 to 100 μM for 96 h): 19.1 µM; IC50 ([2]; Homo sapiens, DU-145, read-out: IC50 DU-145, Example 10 table): 7.1 µM; IC50 ([3]; Homo sapiens, Example 10 table): > 10 µM; IC50 ([4]; Homo sapiens, LNCaP, Example 10 table): 6.3 µM; IC50 ([5]; Example 10 table): 4 µM; IC50 ([6]; Homo sapiens, TSU-Pr1, Example 10 table): ~10 µM; IC50 ([7]; Example 10 table, 96 h): 7.4 µM; IC50 ([8]; Homo sapiens, Caov-3): 18 µM; IC50 ([9]; Homo sapiens, OVCAR-3): 5.2 µM; IC50 ([10]; Homo sapiens, SK-OV-3): 18 µM

Further lines, with some results ahead:

Row | melting point [°C] | Compound | IC50 [1, 11] [µM] | IC50 [2, 12] [µM] | IC50 ([3]; Homo sapiens, Table 4) [µM] | IC50 ([4]; Homo sapiens, LNCaP, Table 4) [µM] | IC50 ([5]; Table 4) [µM] | IC50 ([6]; Homo sapiens, TSU-Pr1, Table 4) [µM] | IC50 [7, 13] [µM] | further results
4 | 115 | CCCCCCCCCCCCCCCCCCNC(=O)[C@@H]1CSC(c2ccc([N+](=O)[O-])cc2)N1 (mixture of isomers) [Compound 21, (2RS, 4R)-2-(4-Nitro-phenyl)-thiazolidine-4-carboxylic acid octadecylamide] | ~20 | 15.3 | ~20 | 8.4 | 15.3 | 15.9 | 16.3 | 
5 | 100 | CCCCCCCCCCCCCCCCCCNC(=O)[C@@H]1CSC(c2ccc(F)c(Br)c2)N1 (mixture of isomers) [Compound 25, (2RS, 4R)-2-(3-Bromo-4-fluoro-phenyl)-thiazolidine-4-carboxylic acid octadecylamide] | ~20 | 11.3 | 13.5 | 3 | 4.7 | 14 | 15.3 | 
6 | 120 | CCCCCCCCCCCCCCCCCCNC(=O)[C@@H]1CSC(c2ccc(C)cc2)N1 (mixture of isomers) [Compound 26, (2RS, 4R)-2 p-Tolyl-thiazolidine-4-carboxylic acid octadecylamide] | > 20 | 10.5 | 12.8 | 1.9 | 1.9 | 8 | 10.3 | 
7 | 55 | CCCCCCCCCCCCCCCCCCNC(=O)[C@@H]1CSC(c2ccccc2)N1S(C)(=O)=O (mixture of isomers) [Compound 29, (2RS,4R)-3-Methanesulfonyl-2-phenylthiazolidine-4-carboxylic acid octadecylamide] | > 20 | > 20 | > 20 | > 20 | > 20 | > 20 | > 20 | 
